Source: patent US20080009418A1, “Selective Inhibitors” (Alchemia LTD., priority 2004, published 2008)

Experiments:
Human κ-Opioid (KOP) = biological target: T1, Human κ-Opioid (KOP) (Homo sapiens, UniProt P41145); test: Radioligand binding, human κ-opioid (KOP) membranes, filtration, [3H]-Diprenorphine; conditions: compound at 10 μM; [3H]-Diprenorphine, human KOP membranes
T1 construct: purchased Perkin Elmer Biosignal
In short: (§1)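 Membranes from cloned human receptors were incubated with compound and radioligand for 1 hour at room temperature. Bound ligand was collected on 0.3% PEI-soaked filters, washed with cold 50 mM Tris-HCl pH 7.4, and counted by scintillation. Percent inhibition was computed against DMSO totals and reference-ligand nonspecific wells.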

[1] = biological target: T2, Human neuropeptide Y (NPY-Y1) (Homo sapiens, UniProt P25929); test: Radioligand binding, human neuropeptide Y NPY-Y1 membranes, FlashPlate, [125I]-PYY; conditions: compound at 10 μM; [125I]-PYY, human NPY-Y1 membranes
T2 construct: purchased Perkin Elmer Biosignal
T2 sequence (P25929 1-384): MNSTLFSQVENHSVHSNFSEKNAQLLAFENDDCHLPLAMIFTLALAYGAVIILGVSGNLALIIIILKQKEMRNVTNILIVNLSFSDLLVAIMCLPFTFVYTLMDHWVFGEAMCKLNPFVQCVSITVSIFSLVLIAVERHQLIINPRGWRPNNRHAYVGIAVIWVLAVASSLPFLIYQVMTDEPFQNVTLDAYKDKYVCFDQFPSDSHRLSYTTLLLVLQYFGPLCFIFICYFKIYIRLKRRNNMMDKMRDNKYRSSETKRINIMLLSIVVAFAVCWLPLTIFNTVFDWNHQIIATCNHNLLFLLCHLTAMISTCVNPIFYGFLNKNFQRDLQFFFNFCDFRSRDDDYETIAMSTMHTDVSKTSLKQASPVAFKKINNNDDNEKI
In short: (§2)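 Cloned human receptor membranes were coated onto FlashPlate wells and incubated with radioligand and compound (added from a 0.5 mM DMSO daughter plate) for 1 hour at room temperature in the dark. Scintillation counting gave percent inhibition, with DMSO defining total and reference ligand defining non-specific binding.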

Human Melanocortin (MC3) = biological target: T3, Human Melanocortin (MC3) (Homo sapiens, UniProt P41968); test: Radioligand binding, human melanocortin MC3 membranes, FlashPlate, [125I]-NDP-αMSH; conditions: compound at 10 μM; [125I]-NDP-αMSH, human MC3 membranes
T3 construct: purchased Perkin Elmer Biosignal
In short: as §2

Human melanocortin (MC5) = biological target: T4, Human melanocortin (MC5) (Homo sapiens, UniProt P33032); test: Radioligand binding, human melanocortin MC5 membranes, FlashPlate, [125I]-NDP-αMSH; conditions: compound at 10 μM; [125I]-NDP-αMSH, human MC5 membranes
T4 construct: purchased Perkin Elmer Biosignal
In short: as §2

[2] = biological target: T5, Human melanin-concentrating hormone (MCH1) (Homo sapiens, UniProt Q99705); test: Radioligand binding, human melanin-concentrating hormone MCH1 membranes, FlashPlate, [125I]-S36057; conditions: compound at 10 μM; [125I]-S36057, human MCH1 membranes
T5 construct: purchased Perkin Elmer Biosignal
In short: as §2

Mouse urotensin (mUR2) = biological target: T6, Mouse urotensin (mUR2) (Mus musculus, UniProt Q8VIH9); test: Radioligand binding, mouse urotensin mUR2 membranes, FlashPlate, [125I]-Urotensin II; conditions: compound at 10 μM; [125I]-Urotensin II, mouse mUR2 membranes
T6 construct: purchased Perkin Elmer Biosignal
T6 sequence (Q8VIH9 1-385): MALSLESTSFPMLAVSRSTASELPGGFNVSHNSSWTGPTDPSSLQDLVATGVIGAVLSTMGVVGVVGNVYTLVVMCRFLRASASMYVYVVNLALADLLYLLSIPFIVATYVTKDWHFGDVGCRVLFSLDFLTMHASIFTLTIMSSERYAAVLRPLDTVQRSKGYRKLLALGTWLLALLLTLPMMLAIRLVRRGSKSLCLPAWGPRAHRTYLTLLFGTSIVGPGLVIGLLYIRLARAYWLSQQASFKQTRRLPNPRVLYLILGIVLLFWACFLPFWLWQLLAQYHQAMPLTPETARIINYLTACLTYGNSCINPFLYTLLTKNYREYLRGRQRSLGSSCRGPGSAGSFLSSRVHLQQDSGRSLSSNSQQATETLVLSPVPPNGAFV
In short: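 Cloned mouse urotensin (mUR2) receptor membranes from Perkin Elmer Biosignal were immobilized in FlashPlate microplates using a proprietary coating. Each well got 19.5 μl buffer, then 0.5 μl of DMSO, reference ligand, or compound. Adding 5 μl of [125I]-Urotensin II, diluted to 5× final concentration in binding buffer, started binding. Plates were sealed with TopSeal-A and incubated 1 hour at room temperature in the dark. Wells were counted for 30 seconds each on a TopCount after a 60-second delay, and percentage inhibition was calculated.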

Human opioid (ORL1) = biological target: T7, Human opioid (ORL1) (Homo sapiens, UniProt P41146); test: Radioligand binding, human opioid ORL1 membranes, FlashPlate, [125I]-Nociceptin; conditions: compound at 10 μM; [125I]-Nociceptin, human ORL1 membranes
T7 construct: purchased Perkin Elmer Biosignal
In short: as §2

Human Melanocortin (MC4) = biological target: T8, Human Melanocortin (MC4) (Homo sapiens, UniProt P32245); test: Radioligand binding, human melanocortin MC4 membranes, FlashPlate, [125I]-NDP-αMSH; conditions: compound at 10 μM; [125I]-NDP-αMSH, human MC4 membranes
T8 construct: purchased Perkin Elmer Biosignal
In short: as §2

Human neurokinin (NK1) = biological target: T9, Human neurokinin (NK1) (Homo sapiens, UniProt P25103); test: Radioligand binding, human neurokinin NK1 membranes, filtration, [125I]-Substance P; conditions: compound at 10 μM; [125I]-Substance P, human NK1 membranes
T9 construct: purchased Perkin Elmer Biosignal
In short: as §1

Human δ-opioid (DOP) = biological target: T10, Human δ-opioid (DOP) (Homo sapiens, UniProt P41143); test: Radioligand binding, human δ-opioid (DOP) membranes, FlashPlate, [3H]-Bremazocine; conditions: compound at 10 μM; [3H]-Bremazocine, human DOP membranes
T10 construct: purchased Perkin Elmer Biosignal
In short: as §2

Human μ-opioid (MOP) = biological target: T11, Human μ-opioid (MOP) (Homo sapiens, UniProt P35372); test: Radioligand binding, human μ-opioid (MOP) membranes, FlashPlate, [3H]-Naloxone; conditions: compound at 10 μM; [3H]-Naloxone, human MOP membranes
T11 construct: purchased Perkin Elmer Biosignal
In short: as §2

T9 sequence (P25103 whole entry): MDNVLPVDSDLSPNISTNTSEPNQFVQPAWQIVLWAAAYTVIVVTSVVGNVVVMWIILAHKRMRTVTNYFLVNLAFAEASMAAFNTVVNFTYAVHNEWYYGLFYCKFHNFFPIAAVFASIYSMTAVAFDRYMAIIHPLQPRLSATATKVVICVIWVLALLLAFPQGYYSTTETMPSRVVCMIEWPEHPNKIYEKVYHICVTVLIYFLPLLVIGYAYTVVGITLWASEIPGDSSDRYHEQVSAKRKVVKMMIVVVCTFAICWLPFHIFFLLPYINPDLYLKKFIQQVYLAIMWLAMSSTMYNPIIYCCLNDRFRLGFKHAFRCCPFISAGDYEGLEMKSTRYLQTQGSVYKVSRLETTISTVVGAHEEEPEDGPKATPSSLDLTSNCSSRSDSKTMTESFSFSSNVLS
T10 sequence (P41143 whole entry): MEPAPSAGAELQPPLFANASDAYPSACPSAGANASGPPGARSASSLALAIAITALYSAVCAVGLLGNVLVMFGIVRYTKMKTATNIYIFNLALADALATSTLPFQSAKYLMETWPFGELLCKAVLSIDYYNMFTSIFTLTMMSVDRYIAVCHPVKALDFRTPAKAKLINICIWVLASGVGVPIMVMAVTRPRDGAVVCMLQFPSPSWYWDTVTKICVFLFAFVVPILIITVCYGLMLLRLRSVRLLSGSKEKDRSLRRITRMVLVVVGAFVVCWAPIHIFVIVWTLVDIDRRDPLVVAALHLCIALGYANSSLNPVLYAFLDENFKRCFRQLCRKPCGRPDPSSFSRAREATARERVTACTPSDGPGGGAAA
T7 sequence (P41146 whole entry): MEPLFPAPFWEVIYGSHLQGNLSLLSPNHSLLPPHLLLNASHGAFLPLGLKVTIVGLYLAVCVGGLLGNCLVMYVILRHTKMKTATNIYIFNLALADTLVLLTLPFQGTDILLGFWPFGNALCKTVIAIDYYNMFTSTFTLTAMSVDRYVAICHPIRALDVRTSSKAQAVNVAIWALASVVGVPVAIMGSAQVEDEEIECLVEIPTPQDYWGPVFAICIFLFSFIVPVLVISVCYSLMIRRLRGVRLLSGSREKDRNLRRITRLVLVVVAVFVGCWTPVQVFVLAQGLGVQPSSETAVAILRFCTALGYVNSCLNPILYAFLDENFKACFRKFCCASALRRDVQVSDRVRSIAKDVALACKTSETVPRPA
T8 sequence (P32245 whole entry): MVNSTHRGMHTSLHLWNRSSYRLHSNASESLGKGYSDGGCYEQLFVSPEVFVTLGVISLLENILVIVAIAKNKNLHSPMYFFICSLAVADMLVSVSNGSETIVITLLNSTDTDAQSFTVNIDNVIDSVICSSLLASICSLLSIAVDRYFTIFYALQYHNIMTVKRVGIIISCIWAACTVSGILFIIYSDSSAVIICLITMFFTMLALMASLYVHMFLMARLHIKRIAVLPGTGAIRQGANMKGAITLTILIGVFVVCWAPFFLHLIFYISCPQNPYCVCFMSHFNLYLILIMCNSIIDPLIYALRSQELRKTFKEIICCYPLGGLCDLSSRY
T5 sequence (Q99705 whole entry): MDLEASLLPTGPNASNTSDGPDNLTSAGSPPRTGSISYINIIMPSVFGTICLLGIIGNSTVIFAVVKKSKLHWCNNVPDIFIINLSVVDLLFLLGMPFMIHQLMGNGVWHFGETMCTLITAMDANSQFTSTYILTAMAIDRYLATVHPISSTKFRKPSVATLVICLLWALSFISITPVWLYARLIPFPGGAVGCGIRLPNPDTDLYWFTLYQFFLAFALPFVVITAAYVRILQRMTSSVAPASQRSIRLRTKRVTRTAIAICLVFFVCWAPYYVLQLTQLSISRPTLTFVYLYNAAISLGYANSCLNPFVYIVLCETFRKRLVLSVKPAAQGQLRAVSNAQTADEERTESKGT
T1 sequence (P41145 whole entry): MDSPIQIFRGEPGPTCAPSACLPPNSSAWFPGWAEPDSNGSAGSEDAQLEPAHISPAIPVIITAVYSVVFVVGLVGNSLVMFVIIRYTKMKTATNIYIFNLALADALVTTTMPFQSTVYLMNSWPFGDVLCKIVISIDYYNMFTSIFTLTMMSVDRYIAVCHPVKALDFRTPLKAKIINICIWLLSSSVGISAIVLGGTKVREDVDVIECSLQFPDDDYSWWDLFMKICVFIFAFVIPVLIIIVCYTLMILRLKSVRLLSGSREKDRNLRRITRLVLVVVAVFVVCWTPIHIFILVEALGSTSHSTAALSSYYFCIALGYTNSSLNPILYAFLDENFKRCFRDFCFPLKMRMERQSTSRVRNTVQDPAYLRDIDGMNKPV
T4 sequence (P33032 whole entry): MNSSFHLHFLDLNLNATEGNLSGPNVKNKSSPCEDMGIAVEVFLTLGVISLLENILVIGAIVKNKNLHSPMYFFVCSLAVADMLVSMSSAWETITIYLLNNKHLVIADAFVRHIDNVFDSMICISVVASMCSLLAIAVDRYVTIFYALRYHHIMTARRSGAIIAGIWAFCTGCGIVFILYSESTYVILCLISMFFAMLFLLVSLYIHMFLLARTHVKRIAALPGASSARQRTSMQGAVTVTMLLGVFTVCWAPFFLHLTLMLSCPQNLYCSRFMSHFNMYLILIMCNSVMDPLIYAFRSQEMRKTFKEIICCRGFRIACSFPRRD
T3 sequence (P41968 whole entry): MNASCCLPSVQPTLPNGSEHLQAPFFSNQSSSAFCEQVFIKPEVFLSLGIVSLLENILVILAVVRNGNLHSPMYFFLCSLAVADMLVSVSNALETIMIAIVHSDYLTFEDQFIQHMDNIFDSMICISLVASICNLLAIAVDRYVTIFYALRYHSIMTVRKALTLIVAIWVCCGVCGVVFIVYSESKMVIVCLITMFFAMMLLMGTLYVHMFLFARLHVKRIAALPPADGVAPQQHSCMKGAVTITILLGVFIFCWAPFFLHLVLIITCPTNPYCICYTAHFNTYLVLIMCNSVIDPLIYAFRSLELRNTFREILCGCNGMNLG
T11 sequence (P35372 whole entry): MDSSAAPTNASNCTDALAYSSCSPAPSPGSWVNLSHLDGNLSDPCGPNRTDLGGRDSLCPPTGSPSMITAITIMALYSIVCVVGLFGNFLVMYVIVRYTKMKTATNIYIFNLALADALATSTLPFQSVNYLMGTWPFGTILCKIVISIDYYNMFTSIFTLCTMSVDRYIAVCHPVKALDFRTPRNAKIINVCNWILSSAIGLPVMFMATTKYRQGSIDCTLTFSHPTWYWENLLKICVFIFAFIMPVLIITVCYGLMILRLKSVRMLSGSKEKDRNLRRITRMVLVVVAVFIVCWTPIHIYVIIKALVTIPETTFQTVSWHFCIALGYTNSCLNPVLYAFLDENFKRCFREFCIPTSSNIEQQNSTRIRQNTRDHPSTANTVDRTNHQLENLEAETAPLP

Row | SMILES | A2: inhibition of radioligand binding (Human κ-Opioid (KOP)) | A9: inhibition of radioligand binding [1] | A3: inhibition of radioligand binding (Human Melanocortin (MC3)) | A5: inhibition of radioligand binding (Human melanocortin (MC5)) | A6: inhibition of radioligand binding [2] | A11: inhibition of radioligand binding (Mouse urotensin (mUR2)) | A10: inhibition of radioligand binding (Human opioid (ORL1)) | A4: inhibition of radioligand binding (Human Melanocortin (MC4)) | A8: inhibition of radioligand binding (Human neurokinin (NK1)) | A1: inhibition of radioligand binding (Human δ-opioid (DOP)) | A7: inhibition of radioligand binding (Human μ-opioid (MOP))
1 | N=C(N)NCCC(=O)NC1C(OCc2ccc(-c3ccccc3)cc2)OC(COCc2ccc(Cl)cc2)C(O)C1OCc1ccc2ccccc2c1 (stereo not shown) [compound 413] | − (“−” indicates less than 50% inhibition at 10 μM) | − (“−” indicates less than 50% inhibition at 10 μM) | + (“+” indicates greater than 50% inhibition at 10 μM) | + (“+” indicates greater than 50% inhibition at 10 μM) | + (“+” indicates greater than 50% inhibition at 10 μM) | − (“−” indicates less than 50% inhibition at 10 μM) | + (“+” indicates greater than 50% inhibition at 10 μM) | + (“+” indicates greater than 50% inhibition at 10 μM) | + (“+” indicates greater than 50% inhibition at 10 μM) | − (“−” indicates less than 50% inhibition at 10 μM) | − (“−” indicates less than 50% inhibition at 10 μM)
2 | N=C(N)NCCC(=O)NC1C(OCc2ccc(-c3ccccc3)cc2)OC(COCc2ccc3ccccc3c2)C(O)C1OCc1ccc(-c2ccccc2)cc1 (stereo not shown) [compound 414] | − (“−” indicates less than 50% inhibition at 10 μM) | − (“−” indicates less than 50% inhibition at 10 μM) | − (“−” indicates less than 50% inhibition at 10 μM) | + (“+” indicates greater than 50% inhibition at 10 μM) | − (“−” indicates less than 50% inhibition at 10 μM) | − (“−” indicates less than 50% inhibition at 10 μM) | − (“−” indicates less than 50% inhibition at 10 μM) | − (“−” indicates less than 50% inhibition at 10 μM) | + (“+” indicates greater than 50% inhibition at 10 μM) | − (“−” indicates less than 50% inhibition at 10 μM) | − (“−” indicates less than 50% inhibition at 10 μM)
3 | N=C(N)NCCC(=O)NC1C(OCc2ccc(-c3ccccc3)cc2)OC(COCc2ccccc2)C(O)C1OCc1ccc(-c2ccccc2)cc1 (stereo not shown) [compound 415] | − (“−” indicates less than 50% inhibition at 10 μM) | − (“−” indicates less than 50% inhibition at 10 μM) | + (“+” indicates greater than 50% inhibition at 10 μM) | + (“+” indicates greater than 50% inhibition at 10 μM) | + (“+” indicates greater than 50% inhibition at 10 μM) | − (“−” indicates less than 50% inhibition at 10 μM) | − (“−” indicates less than 50% inhibition at 10 μM) | + (“+” indicates greater than 50% inhibition at 10 μM) | + (“+” indicates greater than 50% inhibition at 10 μM) | − (“−” indicates less than 50% inhibition at 10 μM) | − (“−” indicates less than 50% inhibition at 10 μM)
4 | N=C(N)NCCC(=O)NC1C(OCc2ccc(-c3ccccc3)cc2)OC(COCc2ccc(Cl)cc2)C(O)C1OCc1ccc(-c2ccccc2)cc1 (stereo not shown) [compound 416] | − (“−” indicates less than 50% inhibition at 10 μM) | − (“−” indicates less than 50% inhibition at 10 μM) | + (“+” indicates greater than 50% inhibition at 10 μM) | + (“+” indicates greater than 50% inhibition at 10 μM) | + (“+” indicates greater than 50% inhibition at 10 μM) | − (“−” indicates less than 50% inhibition at 10 μM) | + (“+” indicates greater than 50% inhibition at 10 μM) | + (“+” indicates greater than 50% inhibition at 10 μM) | + (“+” indicates greater than 50% inhibition at 10 μM) | − (“−” indicates less than 50% inhibition at 10 μM) | − (“−” indicates less than 50% inhibition at 10 μM)
5 | N=C(N)NCC(=O)NC1C(OCc2ccc(Cl)cc2)OC(COCc2ccc3ccccc3c2)C(O)C1OCc1ccc(Cl)cc1 (stereo not shown) [compound 417] | − (“−” indicates less than 50% inhibition at 10 μM) | − (“−” indicates less than 50% inhibition at 10 μM) | + (“+” indicates greater than 50% inhibition at 10 μM) | + (“+” indicates greater than 50% inhibition at 10 μM) | + (“+” indicates greater than 50% inhibition at 10 μM) | − (“−” indicates less than 50% inhibition at 10 μM) | − (“−” indicates less than 50% inhibition at 10 μM) | + (“+” indicates greater than 50% inhibition at 10 μM) | + (“+” indicates greater than 50% inhibition at 10 μM) | − (“−” indicates less than 50% inhibition at 10 μM) | − (“−” indicates less than 50% inhibition at 10 μM)
